Here are results for 20 compounds from ChEMBL document CHEMBL1125160, “Dihydropyrimidine calcium channel blockers: 2-heterosubstituted 4-aryl-1,4-dihydro-6-methyl-5-pyrimidinecarboxylic acid esters as potent mimics of dihydropyridines” (J Med Chem, 1990).

For the assay, the species on record is Oryctolagus cuniculus. As to the kind of experiment: Vasorelaxant potency in isolated potassium (K(+)-depolarized rabbit thoracic aorta. It counts as functional.

Where only a bound is given, the exact number is not on record here.

For `CSC1=NC(c2cccc([N+](=O)[O-])c2)C(C(=O)OC(C)C)=C(C)N1` (stereo not given), half-maximal inhibition (IC50) was put at 0.007 µM.
With `COC(=O)C1=C(C)N=C(SC)NC1c1cccc([N+](=O)[O-])c1` (stereo not given), the IC50 amounted to 0.28 µM. This IC50 lies about 40-fold higher than the previous one.
To `CCOC(=O)C1=C(C)NC(SC)=NC1c1ccccc1[N+](=O)[O-]` (stereo not given) belongs 0.3 µM.
`CC1=C(C(=O)OC(C)C)C(c2cccc([N+](=O)[O-])c2)N=C(SCCN(C)C)N1` (stereo not given) showed an IC50 of 1.2 µM.
Consider `CCOC(=O)C1=C(C)NC(N(C)C)=NC1c1cccc([N+](=O)[O-])c1` (stereo not given), for which the IC50 was found to be 6.1 µM.
`C=CCSC1=NC(c2cccc([N+](=O)[O-])c2)C(C(=O)OCC)=C(C)N1` (stereo not given) yielded an IC50 of 0.3 µM.
For `CCOC(=O)C1=C(C)NC(OCC)=C(C(=O)OCC)C1c1cccc([N+](=O)[O-])c1` (stereo not given), half-maximal inhibition (IC50) required 0.026 µM.
Consider `CCC(C)OC(=O)C1=C(C)NC(SC)=NC1c1cccc([N+](=O)[O-])c1` (stereo not given), for which the IC50 was found to be 0.009 µM. Against the preceding compound, the IC50 is about 2.9-fold lower.
Compound `CCOC(=O)C1=C(C)NC(SCC)=C(C(=O)OCC)C1c1cccc([N+](=O)[O-])c1` (stereo not given) displayed an IC50 of 0.004 µM.
To `CCOC(=O)C1=C(C)NC(SC)=NC1c1cccc(Cl)c1Cl` (stereo not given) belongs 0.016 µM.
On to `CSC1=NC(c2cccc([N+](=O)[O-])c2)C(C(=O)OCCN(C)Cc2ccccc2)=C(C)N1` (stereo not given), for which the IC50 stood at 0.03 µM. Against the preceding compound, the IC50 is about 1.9-fold higher.
In turn, `CCOC(=O)C1=C(C)NC(SC)=NC1c1ccccc1C(F)(F)F` (stereo not given) returned an IC50 of 0.036 µM.
`CSC1=NC(c2cccc(Cl)c2Cl)C(C(=O)OC(C)C)=C(C)N1` (stereo not given) came in with an IC50 of 0.006 µM.
Regarding `CSC1=NC(c2ccccc2C(F)(F)F)C(C(=O)OCCN(C)Cc2ccccc2)=C(C)N1` (stereo not given), the IC50 was over 100 µM.
`CSC1=NC(c2ccccc2[N+](=O)[O-])C(C(=O)OCCN(C)Cc2ccccc2)=C(C)N1` (stereo not given) registered an IC50 of 1.9 µM. That is a single-digit micromolar value.
`CCOC(=O)C1=C(C)NC(SCCN(C)Cc2ccccc2)=NC1c1cccc([N+](=O)[O-])c1` (stereo not given) had an IC50 of 0.17 µM. Compared with the last compound, the IC50 is about 11-fold lower.
Turning to `CCOC(=O)C1=C(C)NC(SC)=NC1c1cccc([N+](=O)[O-])c1` (stereo not given), the IC50 worked out at 0.13 µM.
With `CCCCCSC1=NC(c2cccc([N+](=O)[O-])c2)C(C(=O)OCC)=C(C)N1` (stereo not given), the IC50 was found to be 0.18 µM. This IC50 and that of the compound before are within 1.5-fold of each other.
Under `CCOC(=O)C1=C(C)NC(SCc2ccccc2)=NC1c1cccc([N+](=O)[O-])c1` (stereo not given) stands 0.19 µM; under `CCOC(=O)C1=C(C)N=C(OC)NC1c1cccc([N+](=O)[O-])c1` (stereo not given), 0.71 µM.
